Reference: patent US20100196492A1, “ELECTROSTATIC COATING OF PARTICLES FOR DRUG DELIVERY” (priority 2007, published 2010)

What was measured:
[1] = system: HUVECs; assay: GFP transfection of confluent HUVECs in 12% serum, FACS; format: cell-based, Human; conditions: 40 w/w C32; N/P 1.55
Source text: GFP Transfections. Fluorescent Activated Cell Sorting (FACS) and enhanced green fluorescent protein (EGFP) DNA were utilized to determine the efficacy of nanoparticle gene delivery. FACS data was interpreted by using a two-dimensional contour plot that compares the ratio of EGFP channel fluorescence (x-axis) to yellow channel autofluorescence (y-axis) for greater accuracy than a one-dimensional histogram as previously described. […] These experiments took place under conditions generally seen as difficult for in vitro transfection, but important for an in vivo cardiovascular application: fully confluent, and therefore non-dividing, primary cells in the presence of a high concentration of serum proteins.
GFP Transfections. Non-viral nanoparticle transfections were performed on confluent HUVECs in the presence of 12% serum. HUVECs were seeded (75,000 cells/well) into clear 24-well plates (Becton Dickinson, Franklin Lakes, N.J., USA) at 24 hours prior to transfection to allow for growth to confluence. Nanoparticles were constructed as previously mentioned using a 6 μg DNA basis per well. Then 150 μL of each polymer/DNA/peptide nanoparticle solution was added to 1.00 mL of FBS supplemented EGM-2 media (12% Serum). […]
Flow Cytometry. GFP expression was measured using Fluorescence Activated Cell Sorting (FACS) on a FACSCalibur (Becton Dickinson, San Jose, Calif., USA). […]

[2] = system: LS174T cells; assay: Cytotoxicity of gelonin coated C32/DNA particles; format: cell-based; conditions: single treatment; 70 w/w C32, 600 ng DNA, 100 nM gelonin; colon cancer cells
Method: FIG. 14. Cytotoxity of composition on cells using a cytotoxic drug itself as the coating. 70 w/w C32 particles with 600 ng DNA were coated with 100 nM gelonin (a 28 kD protein) to test the cytotoxicity of the compostion in LS174T cells.
Unformulated gelonin is unable to reach the cytoplasm unassisted. In constrast, the gelonin coated nanoparticles are able to be effectively internalized into the cell and released from the endosomal compartment into the cytoplasm, where they are active.

| Substance | transfection of HUVECs (FACS gating of GFP) [1] | cells killed [2] |
| --- | --- | --- |
| EEEEEEEEEEEEGGGGGGGRDGS [E12-RDG] | do not | – |
| gelonin | – | unable to kill any of the cells |
